# Where two headings read alike, the source gives them in different places.
# Key:
# blackgrass = experiment: Test B postemergence herbicide test; assay type: in vivo, Alopecurus myosuroides; conditions: Alopecurus myosuroides, post-emergence, 336 h, postemergence, read-out: Blackgrass plant response rating
# In short: (§1)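 After treating 2-leaf paddy plants or 2–18 cm postemergence plants (1 to 4 leaves) with formulated chemical, researchers kept them in a greenhouse for 13–15 days. Effects were judged visually versus controls: 0 indicates none, 100 total control.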
# ducksalad = experiment: Test B flooded paddy test; assay type: in vivo, Heteranthera limosa; conditions: Heteranthera limosa, 336 h, 1000 g ai/ha, visual rating, scale 0 to 100 (0 no effect, 100 complete control), 13 to 15 days, read-out: Ducksalad plant response rating
# In short: as §1
# corn = experiment: Test B pre-/postemergence herbicide test; assay type: in vivo, Zea mays; conditions: Zea mays; for plant injury at 125 g/ha: 125 g ai/ha
# In short: (§2)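 Evaluation is visual, comparing treated with control plants on a scale where 0 means no effect and 100 means full control. Treatments were preemergence, or postemergence on seedlings 2–18 cm tall, and held 13–15 days in the greenhouse.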
# barnyardgrass = experiment: Test B pre-/postemergence herbicide test; assay type: in vivo, Echinochloa crus-galli; conditions: Echinochloa crus-galli; for pest or weed control at 125 g/ha: 125 g ai/ha
# In short: (§3)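 Flooded paddy rice and barnyardgrass were treated at the 2-leaf stage; upland plantings received compound either on sown seed or on 1- to 4-leaf seedlings. All were kept 13–15 days in a greenhouse and scored visually, 0–100, relative to untreated plants.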
# [1] = test system: small flower umbrella sedge; experiment: Test B flooded paddy test; assay type: in vivo, Cyperus difformis; conditions: Cyperus difformis, 336 h, 1000 g ai/ha, visual rating, scale 0 to 100 (0 no effect, 100 complete control), 13 to 15 days, read-out: Sedge, Umbrella plant response rating
# In short: as §1
# rice = experiment: Test B flooded paddy test; assay type: in vivo, Oryza sativa; conditions: Oryza sativa, 336 h, 1000 g ai/ha, visual rating, scale 0 to 100 (0 no effect, 100 complete control), 13 to 15 days, read-out: Rice plant response rating
# In short: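 Each value is a visual 0–100 response rating taken against controls 13 to 15 days after treatment in the greenhouse. Plants received formulated chemical postemergence at the 1- to 4-leaf stage or, in flooded paddy, at the 2-leaf stage.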
# pigweed = experiment: Test B pre-/postemergence herbicide test; assay type: in vivo, Amaranthus retroflexus; conditions: Amaranthus retroflexus, 336 h; for pest or weed control at 125 g/ha: 125 g ai/ha
# In short: as §2
# giant foxtail = experiment: Test B pre-/postemergence herbicide test; assay type: in vivo, Setaria faberi; conditions: Setaria faberi, 336 h; for pest or weed control at 125 g/ha: 125 g ai/ha
# In short: as §2
# wild oat = experiment: Test B postemergence herbicide test; assay type: in vivo, Avena fatua; conditions: Avena fatua, post-emergence, 336 h, postemergence, read-out: Oat, Wild plant response rating
# In short: (§4)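 Treated at 2-leaf (paddy) or 1–4-leaf, 2–18 cm (postemergence); greenhouse 13–15 d; visual score vs control, 0 none to 100 complete control; dash = not tested.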
# morningglory = experiment: Test B pre-/postemergence herbicide test; assay type: in vivo, Ipomoea coccinea; conditions: Ipomoea, 336 h; for pest or weed control at 125 g/ha: 125 g ai/ha
# In short: as §3
# lambsquarters = experiment: Test B pre-/postemergence herbicide test; assay type: in vivo, Chenopodium album; conditions: Chenopodium album, 336 h; for pest or weed control at 125 g/ha: 125 g ai/ha
# In short: as §2
# velvetleaf = experiment: Test B pre-/postemergence herbicide test; assay type: in vivo, Abutilon theophrasti; conditions: Abutilon theophrasti, 336 h; for pest or weed control at 125 g/ha: 125 g ai/ha
# In short: as §2
# wheat = experiment: Test B postemergence herbicide test; assay type: in vivo, Triticum aestivum; conditions: Triticum aestivum, post-emergence, 336 h, postemergence, read-out: Wheat plant response rating
# In short: as §4
# Surinam grass = experiment: Test B pre-/postemergence herbicide test; assay type: in vivo, Urochloa decumbens; conditions: Urochloa decumbens; for pest or weed control at 125 g/ha: 125 g ai/ha
# In short: as §2
# large crabgrass = experiment: Test B pre-/postemergence herbicide test; assay type: in vivo, Digitaria sanguinalis; conditions: Digitaria sanguinalis; for pest or weed control at 125 g/ha: 125 g ai/ha
# In short: as §2
# [2] = 125 g ai/ha, visual rating, scale 0 (no effect) to 100 (complete control)
compound,measurement,setting,value
"CCc1cn(C(C)(C)C)nc1C(=O)Nc1cccc(C(=O)N(CC)CC)c1 [Compound 168, N-[3-[(diethylamino)carbonyl]phenyl]-1-(1,1-dimethylethyl)-4-ethyl-1H-pyrazole-3-carboxamide]",pest or weed control at 31 g/ha,"blackgrass; 31 g ai/ha, scale 0 to 100",0%
same,pest or weed control at 125 g/ha,blackgrass; [2],10%
same,pest or weed control at 1000 g/ha,ducksalad,70%
same,plant injury at 31 g/ha,"corn; post-emergence, postemergence, 31 g ai/ha, scale 0 to 100, read-out: Corn plant response rating",10%
same,plant injury at 125 g/ha,"corn; post-emergence, postemergence, visual rating, scale 0 (no effect) to 100 (complete control), read-out: Corn plant response rating",50%
same,plant injury at 125 g/ha,"corn; pre-emergence, 0 = no effect, 100 = complete control, read-out: Corn plant response rating (0 to 100 scale)",0%
same,pest or weed control at 31 g/ha,"barnyardgrass; post-emergence, postemergence, 31 g ai/ha, scale 0 to 100, read-out: Barnyardgrass plant response rating",0%
same,pest or weed control at 125 g/ha,"barnyardgrass; post-emergence, postemergence, visual rating, scale 0 (no effect) to 100 (complete control), read-out: Barnyardgrass plant response rating",50%
same,pest or weed control at 125 g/ha,"barnyardgrass; pre-emergence, 0 = no effect, 100 = complete control, read-out: Barnyardgrass plant response rating (0 to 100 scale)",70%
same,pest or weed control at 1000 g/ha,[1],90%
same,plant injury at 1000 g/ha,rice,40%
same,pest or weed control at 31 g/ha,"pigweed; post-emergence, postemergence, 31 g ai/ha, scale 0 to 100, read-out: Pigweed plant response rating",50%
same,pest or weed control at 125 g/ha,"pigweed; post-emergence, postemergence, visual rating, scale 0 (no effect) to 100 (complete control), read-out: Pigweed plant response rating",70%
same,pest or weed control at 125 g/ha,"pigweed; pre-emergence, 0 = no effect, 100 = complete control, read-out: Pigweed plant response rating (0 to 100 scale)",100%
same,pest or weed control at 31 g/ha,"giant foxtail; post-emergence, postemergence, 31 g ai/ha, scale 0 to 100, read-out: Foxtail, Giant plant response rating",0%
same,pest or weed control at 125 g/ha,"giant foxtail; post-emergence, postemergence, visual rating, scale 0 (no effect) to 100 (complete control), read-out: Foxtail, Giant plant response rating",20%
same,pest or weed control at 125 g/ha,"giant foxtail; pre-emergence, 0 = no effect, 100 = complete control, read-out: Foxtail, Giant plant response rating (0 to 100 scale)",90%
same,pest or weed control at 31 g/ha,"wild oat; 31 g ai/ha, scale 0 to 100",10%
same,pest or weed control at 125 g/ha,wild oat; [2],20%
same,pest or weed control at 31 g/ha,"morningglory; post-emergence, postemergence, 31 g ai/ha, scale 0 to 100, read-out: Morningglory plant response rating",20%
same,pest or weed control at 125 g/ha,"morningglory; post-emergence, postemergence, visual rating, scale 0 (no effect) to 100 (complete control), read-out: Morningglory plant response rating",70%
same,pest or weed control at 125 g/ha,"morningglory; pre-emergence, 0 = no effect, 100 = complete control, read-out: Morningglory plant response rating (0 to 100 scale)",0%
same,pest or weed control at 31 g/ha,"lambsquarters; post-emergence, postemergence, 31 g ai/ha, scale 0 to 100, read-out: Lambsquarters plant response rating",50%
same,pest or weed control at 125 g/ha,"lambsquarters; post-emergence, postemergence, visual rating, scale 0 (no effect) to 100 (complete control), read-out: Lambsquarters plant response rating",70%
same,pest or weed control at 125 g/ha,"lambsquarters; pre-emergence, 0 = no effect, 100 = complete control, read-out: Lambsquarters plant response rating (0 to 100 scale)",90%
same,pest or weed control at 31 g/ha,"velvetleaf; post-emergence, postemergence, 31 g ai/ha, scale 0 to 100, read-out: Velvetleaf plant response rating",10%
same,pest or weed control at 125 g/ha,"velvetleaf; post-emergence, postemergence, visual rating, scale 0 (no effect) to 100 (complete control), read-out: Velvetleaf plant response rating",20%
same,pest or weed control at 125 g/ha,"velvetleaf; pre-emergence, 0 = no effect, 100 = complete control, read-out: Velvetleaf plant response rating (0 to 100 scale)",60%
same,plant injury at 31 g/ha,"wheat; 31 g ai/ha, scale 0 to 100",0%
same,plant injury at 125 g/ha,wheat; [2],20%
same,pest or weed control at 31 g/ha,"Surinam grass; post-emergence, postemergence, 31 g ai/ha, scale 0 to 100, read-out: Surinam Grass plant response rating",10%
same,pest or weed control at 125 g/ha,"Surinam grass; post-emergence, postemergence, visual rating, scale 0 (no effect) to 100 (complete control), read-out: Surinam Grass plant response rating",20%
same,pest or weed control at 125 g/ha,"Surinam grass; pre-emergence, 0 = no effect, 100 = complete control, read-out: Surinam Grass plant response rating (0 to 100 scale)",50%
same,pest or weed control at 31 g/ha,"large crabgrass; post-emergence, postemergence, 31 g ai/ha, scale 0 to 100, read-out: Crabgrass, Large plant response rating",10%
same,pest or weed control at 125 g/ha,"large crabgrass; post-emergence, postemergence, visual rating, scale 0 (no effect) to 100 (complete control), read-out: Crabgrass, Large plant response rating",20%
same,pest or weed control at 125 g/ha,"large crabgrass; pre-emergence, 0 = no effect, 100 = complete control, read-out: Crabgrass, Large plant response rating (0 to 100 scale)",100%
